Measured values as given in patent publication US10766888B1, “HMOX1 inducers” (Mitobridge Inc., priority 2019, dated 2020).
Like-named read-outs stand apart in the source and are kept apart here.

Legend:
[1] = test system: FTH1; experiment: FTH1 mRNA expression in HepG2 cells (Nanostring); assay type: cell-based, human; conditions: 24 hours treatment
Procedure: RNA Isolation and Quantification of Gene Expression
HepG2 cells were seeded at 250 k/well in 12-well tissue culture plates coated with collagen (collagen I, rat tail (thin plate coating); ENZO Life Sciences) for approximately 24 hours. The seeded cells were then treated with dose titration of the compound of Example 17 or dimethyl fumarate (DMF) (a Nrf2 activator; Fisher Scientific) via media change, with biological triplicates performed for each treatment. After approximately 24 hours of treatment, cells were visually inspected to confirm that no toxicity occurred with compound treatment. The treated cells were washed with PBS, aspirated, parafilmed and frozen at −80° C. prior to RNA isolation. RNA was isolated using Machery-Nagel isolation kit (NucleoSpin® RNA: catalog 740955.250) and then quantitated using ThermoFisher Nanodrop.
RNA was diluted for Nanostring gene expression analysis. The diluted RNA at an input of 200 ng RNA was run on a Nanostring instrument, which was supported with nCounter® SPRINT Profiler System and nSolver4.0 Software, nCounter® SPRINT Cartridge, nCounter® SPRINT Reagent Pack, and nCounter® SPRINT Hybridization Buffer. Analysis was done manually using raw data obtained from nSolver4.0 Software. CLTC, POLR2A, RPL27 and TBP were used as reference genes for normalization. Data was graphed as fold change compared to DMSO treatment. […]

[2] = test system: Human Heme Oxygenase-1 (HMOX-1); experiment: ELISA assay to measure human heme oxygenase-1 (HMOX-1) in HepG2 lysate; assay type: cell-based
Outline: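 Treated HepG2 cells were lysed in PBS with 0.5% Triton X100, 1 mM EDTA and protease inhibitors, and lysates were diluted 1:20. HO-1 was measured by sandwich ELISA (biotinylated detection antibody, streptavidin-HRP, chemiluminescence) at room temperature against a standard curve from 20 ng/ml. EC50 and fold change were expressed relative to DMSO control.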

[3] = PK study: plasma and brain levels in mice; assay type: in vivo; conditions: male C57BL/6 mice, 50 mg/kg oral; for concentration at 0.5 h / concentration at 4 h: mouse; for concentration at 0.5 h: 0.5 hr post dosing; for concentration at 4 h: 4 hr post dosing
Procedure: 9-10 week old male C57BL/6 mice were dosed orally with 50 mg/kg of the test compound formulated in 5% w/v tween 80 and 0.5% methyl cellulose. At 0.5 and 4 h post dosing, whole blood was collected, animals were sacrificed and brain tissues were collected. The blood samples were immediately placed on ice, and centrifuged within 60 min at 4° C. for 3 min at 14000 rpm to obtain plasma. Plasma was transferred by pipette to pre-labeled Eppendorf tubes, stored at −80° C. until analyzed.
Brain tissue samples were collected and rinsed with fresh ice cold 0.9% NaCl solution, dried quickly and thereafter frozen on dry ice/liquid nitrogen and stored at −70±10° C. until analyzed. Homogenization was done using phosphate buffer saline and used for analysis. Bioanalysis was performed using LC-MS/MS (API 4000).

[4] = human HMOX1 protein level in HepG2 lysate, * = average of 2 or more EC50 determinations, NA = Not Active, read-out: EC50
[5] = brain, read-out: Brain (ng/g) 0.5 hr
[6] = plasma, read-out: Plasma (ng/ml) 0.5 hr
[7] = plasma, read-out: Plasma (ng/ml) 4 hr

Row | EC50 ([2]; HepG2, human HMOX1, as listed in Table 5, read-out: HMOX1 EC50 h) | EC50 [2, 4] | concentration at 0.5 h [3, 5] | concentration at 0.5 h [3, 6] | concentration at 4 h [3, 7] | brain penetration (in words) [3] | concentration at 4 h ([3]; brain, read-out: Brain (ng/g) 4 hr) | Structure (SMILES) | FTH1 expression fold increase (in words) [1]
1 | 1.4 µM | 1.4 µM | 188 ± 83 ng/g | 4240 ± 771 ng/mL | 72 ± 38 ng/mL | – | – | Cn1c(Nc2nc3ccccc3o2)nc2cc(C(=O)NCCOCCO)ccc21 [Example 17, 2-(benzo[d]oxazol-2-ylamino)-N-(2-(2-hydroxyethoxy)ethyl)-1-methyl-1H-benzo[d]imidazole-5-carboxamide] | comparable fold increases
2 | – | 1.4 µM | 4230 ± 600 ng/g | 4240 ± 428 ng/mL | 281 ± 318 ng/mL | good brain penetration | 122 ± 153 ng/g | COCCNC(=O)c1ccc2c(c1)nc(Nc1nc3ccc(OCCOC)cc3o1)n2C [Example 56, 2-((6-(2-methoxyethoxy)benzo[d]oxazol-2-yl)amino)-N-(2-methoxyethyl)-1-methyl-1H-benzo[d]imidazole-5-carboxamide] | –
